Laboratory results reported in patent US20240139211A1, “METHODS AND COMPOSITIONS FOR TREATING AMYOTROPHIC LATERAL SCLEROSIS” (Amylyx Pharmaceuticals, Inc., priority 2022, published 2024).
Values joined by “and” are separate entries in the source; they are usually repeats but may differ in a detail not shown here. Identical values can stand only once.

Legend:
OAT3 = target: T1, OAT3 (Homo sapiens, UniProt Q8TCC7); experiment: in vitro
T1 sequence (Q8TCC7 1-542): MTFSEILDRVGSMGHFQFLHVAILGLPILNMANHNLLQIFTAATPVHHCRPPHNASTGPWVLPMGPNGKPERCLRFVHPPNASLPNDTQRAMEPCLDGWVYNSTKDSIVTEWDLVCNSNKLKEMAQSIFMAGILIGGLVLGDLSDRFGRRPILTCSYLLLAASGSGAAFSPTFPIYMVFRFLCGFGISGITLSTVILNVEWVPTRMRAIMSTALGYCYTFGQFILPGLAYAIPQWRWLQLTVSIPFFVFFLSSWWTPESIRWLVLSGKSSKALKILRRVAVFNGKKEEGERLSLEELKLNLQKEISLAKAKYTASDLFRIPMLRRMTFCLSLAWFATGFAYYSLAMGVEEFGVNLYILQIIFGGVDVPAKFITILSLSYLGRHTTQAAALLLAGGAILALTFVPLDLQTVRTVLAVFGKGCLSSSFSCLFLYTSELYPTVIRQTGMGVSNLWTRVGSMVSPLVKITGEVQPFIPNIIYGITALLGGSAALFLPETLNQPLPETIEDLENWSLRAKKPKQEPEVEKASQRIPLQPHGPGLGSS

[1] = Rat drug-drug interaction study TDF + AMX0035: urine recovery; format: in vivo
Protocol: Total urine recovery data for Tenofovir, TDF, and PB was calculated for the 24 hour collection period on Days 1 and 5. […] The reported urine recovery data included amount recovered (ng) and percent recovered (%) for […]. Individual and mean Tenofovir, TDF, and PB urine recovery data were presented with SD, reported to three significant figures, and CV %, reported to one decimal place.

[2] = Solubility assessment in HBSSg_7.4 and HBSSg_8.5; conditions: for Measured Concentration / Percent of the Nominal Concentration: replicates 1-3
hrCYP2C19 = hrCYP2C19 (Homo sapiens, UniProt P33261); experiment: CYP reaction phenotyping with hrCYP2C19 (% remaining); format: in vitro ADME; conditions: for % Remaining of TA: hrCYP2C19 20 pmol CYP/mL, 5 μM TA, PB and TUDCA co-incubated
hrCYP2B6 = target: T2, hrCYP2B6 (Homo sapiens, UniProt P20813); experiment: CYP reaction phenotyping with hrCYP2B6 (% remaining); format: in vitro ADME; conditions: for % Remaining of TA: hrCYP2B6 20 pmol CYP/mL, 5 μM TA, PB and TUDCA co-incubated
T2 sequence (P20813 1-491): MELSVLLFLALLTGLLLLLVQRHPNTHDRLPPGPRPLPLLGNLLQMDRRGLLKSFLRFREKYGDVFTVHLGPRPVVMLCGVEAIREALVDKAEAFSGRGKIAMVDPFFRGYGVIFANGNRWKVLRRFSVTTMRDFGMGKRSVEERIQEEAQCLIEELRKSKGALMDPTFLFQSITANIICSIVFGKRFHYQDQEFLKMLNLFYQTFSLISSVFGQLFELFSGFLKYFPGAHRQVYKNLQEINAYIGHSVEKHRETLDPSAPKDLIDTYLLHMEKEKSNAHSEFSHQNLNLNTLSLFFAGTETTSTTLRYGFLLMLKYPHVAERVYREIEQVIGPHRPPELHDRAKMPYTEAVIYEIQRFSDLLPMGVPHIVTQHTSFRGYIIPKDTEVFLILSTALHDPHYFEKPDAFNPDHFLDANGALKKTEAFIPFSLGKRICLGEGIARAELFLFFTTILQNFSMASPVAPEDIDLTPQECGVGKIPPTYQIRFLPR

P-gp and BCRP = P-gp and BCRP substrate assessment in C2BBe1 monolayers
Protocol: The P-gp and BCRP substrate assessment was conducted in C2BBe1 cell monolayers. […] LY was co-dosed with each dosing solution at a nominal concentration of 200 μM.
The cell culture medium was aspirated, and the cell monolayers were rinsed once with HBSSg_7.4. […] For receiver samples, aliquots (300 μL) were taken at pre-selected time points. […] For donor samples, aliquots (50 μL) were taken at pre-selected time points without replacement.

[3] = Rat drug-drug interaction study TDF + AMX0035: plasma pharmacokinetics; conditions: for Plasma Concentration of analyte at 0.50 hr / Plasma Concentration of analyte at 1.0 hr / Plasma Concentration of analyte at 2.0 hr / Plasma Concentration of analyte at 4.0 hr / Plasma Concentration of analyte at 8.0 hr / Plasma Concentration of analyte at 24 hr / Plasma Concentration of analyte at […] / AUC0-24 / AUClast / Cmax / Tlast / Tmax: male Sprague Dawley rats; for AUC0-24 / AUClast / Cmax / Tlast / Tmax: oral, plasma
[4] = HBSSg_7.4, target 8005 μM TUDCA, 64447 μM PB
[5] = HBSSg_8.5, target 810 μM TUDCA, 73927 μM PB
[6] = 1.62 μM TUDCA (Solution 3), C2BBe1 cells, average
[7] = 1.62 μM TUDCA (Solution 3), C2BBe1 cells, single replicates
[8] = 16.2 μM TUDCA (Solution 2), C2BBe1 cells, average
[9] = 16.2 μM TUDCA (Solution 2), C2BBe1 cells, single replicates
[10] = […] TUDCA (Solution 1), C2BBe1 cells, average
[11] = […] TUDCA (Solution 4), C2BBe1 cells, average
[12] = Day 1, TDF only 25 mg/kg oral, individual animals, BLQ = <50 ng/mL
[13] = Day 1, TDF only 25 mg/kg oral, mean of 3, BLQ set to zero
[14] = Day 5, AMX0035 + TDF 840/25 mg/kg oral, individual animals, BLQ = <50 ng/mL
[15] = Day 5, AMX0035 + TDF 840/25 mg/kg oral, mean of 3, BLQ set to zero
[16] = Day 1, TDF only 25 mg/kg, individual animals
[17] = Day 1, TDF only 25 mg/kg, mean, N=3
[18] = Day 5, AMX0035 + TDF 840/25 mg/kg, individual animals
[19] = Day 5, AMX0035 + TDF 840/25 mg/kg, mean, N=3

hrCYP2C19, sequence (P33261 whole entry): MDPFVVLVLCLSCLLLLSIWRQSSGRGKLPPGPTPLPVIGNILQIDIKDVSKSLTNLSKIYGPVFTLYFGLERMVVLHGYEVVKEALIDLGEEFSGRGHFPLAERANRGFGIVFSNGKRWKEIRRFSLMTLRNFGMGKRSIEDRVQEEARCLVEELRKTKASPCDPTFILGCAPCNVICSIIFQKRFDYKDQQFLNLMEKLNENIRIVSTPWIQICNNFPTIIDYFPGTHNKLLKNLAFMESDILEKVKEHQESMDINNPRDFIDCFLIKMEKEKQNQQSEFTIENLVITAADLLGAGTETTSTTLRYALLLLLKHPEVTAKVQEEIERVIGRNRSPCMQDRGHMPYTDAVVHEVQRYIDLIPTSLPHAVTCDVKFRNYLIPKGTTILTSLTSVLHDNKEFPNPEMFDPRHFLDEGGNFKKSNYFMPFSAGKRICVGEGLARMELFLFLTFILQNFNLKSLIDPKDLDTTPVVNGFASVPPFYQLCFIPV

## C[C@H](CCC(=O)NCC(=O)O)[C@H]1CC[C@H]2[C@@H]3[C@@H](O)C[C@@H]4C[C@H](O)CC[C@]4(C)[C@H]3CC[C@]12C [Glycoursodeoxycholic acid, glycoursodeoxycholic acid]
OAT3
  potency estimated from few doses: < 100 µM

## tauroursodeoxycholic acid [TUDCA]
[1]; Days 1 and 5
  Detection in urine: not detected in any urine samples
[2]; HBSSg_7.4, 37° C. overnight
  Soluble up to target concentration: ≥ 8005 µM
[2]; [4]
  Measured Concentration: 6710 µM and 6950 µM and 6770 µM
  Percent of the Nominal Concentration: 83.8% and 86.8% and 84.6%
[2]; HBSSg_8.5, 37° C. overnight
  Soluble up to target concentration: ≥ 810 µM
[2]; [5]
  Measured Concentration: 719 μM and 704 μM (2×)
  Percent of the Nominal Concentration: 88.8% and 86.9% (2×)
hrCYP2C19; 0 min
  % Remaining of TA: 100%
hrCYP2C19; 5 min
  % Remaining of TA: 96.1%
hrCYP2C19; 10 min
  % Remaining of TA: 98.7%
hrCYP2C19; 20 min
  % Remaining of TA: 94.8%
hrCYP2C19; 30 min
  % Remaining of TA: 95.1%
hrCYP2B6; 0 min
  % Remaining of TA: 100%
hrCYP2B6; 5 min
  % Remaining of TA: 97.6%
hrCYP2B6; 10 min
  % Remaining of TA: 97.0%
hrCYP2B6; 20 min
  % Remaining of TA: 99.3%
hrCYP2B6; 30 min
  % Remaining of TA: 99.7%
hrCYP2B6; 60 min
  % Remaining of TA: 101%
P-gp and BCRP; [6]
  Papp AP-to-BL: 8.32 10^−6 cm/s
  Papp BL-to-AP: 1.91 10^−6 cm/s
P-gp and BCRP; [7]
  Papp AP-to-BL: 9.59 10^−6 cm/s and 7.25 10^−6 cm/s and 8.12 10^−6 cm/s
  Papp BL-to-AP: 1.75 10^−6 cm/s and 1.84 10^−6 cm/s
P-gp and BCRP; [8]
  Papp AP-to-BL: 2.00 10^−6 cm/s
  Papp BL-to-AP: 0.610 10^−6 cm/s
P-gp and BCRP; [9]
  Papp AP-to-BL: 1.19 10^−6 cm/s and 2.71 10^−6 cm/s and 2.08 10^−6 cm/s
  Papp BL-to-AP: 0.553 10^−6 cm/s and 0.714 10^−6 cm/s and 0.561 10^−6 cm/s
P-gp and BCRP; Caco-2
  Papp BL-to-AP: 2.15 10^−6 cm/s
P-gp and BCRP; [10]
  Papp AP-to-BL: 5.92 10^−6 cm/s
  Papp BL-to-AP: 3.00 10^−6 cm/s
P-gp and BCRP; [11]
  Papp AP-to-BL: 7.11 10^−6 cm/s
  Papp BL-to-AP: 2.14 10^−6 cm/s
[3]; [12]
  Plasma Concentration of analyte at 0.50 hr: 0.154 µg/mL and 0.148 µg/mL and 0.0454 µg/mL
  Plasma Concentration of analyte at 1.0 hr: 0.239 µg/mL and 0.197 µg/mL and 0.108 µg/mL
  Plasma Concentration of analyte at 2.0 hr: 0.313 µg/mL and 0.186 µg/mL and 0.0768 µg/mL
  Plasma Concentration of analyte at 4.0 hr: 0.199 µg/mL and 0.153 µg/mL and 0.0714 µg/mL
  Plasma Concentration of analyte at 8.0 hr: 0.338 µg/mL and 0.211 µg/mL and 0.0688 µg/mL
  Plasma Concentration of analyte at 24 hr: 0.267 µg/mL and 0.287 µg/mL and 0.113 µg/mL
  Plasma Concentration of analyte at […]: 0.201 µg/mL and 0.121 µg/mL and 0.0693 µg/mL
[3]; [13]
  Plasma Concentration of analyte at 0.50 hr: 0.116 µg/mL
  Plasma Concentration of analyte at 1.0 hr: 0.181 µg/mL
  Plasma Concentration of analyte at 2.0 hr: 0.192 µg/mL
  Plasma Concentration of analyte at 4.0 hr: 0.141 µg/mL
  Plasma Concentration of analyte at 8.0 hr: 0.139 µg/mL
  Plasma Concentration of analyte at 24 hr: 0.222 µg/mL
  Plasma Concentration of analyte at […]: 0.13 µg/mL
[3]; Day 1, no AMX0035, over 24 hours
  Mean endogenous plasma levels: 130 to 222 ng/mL
[3]; Day 5
  Increase of plasma concentration vs Day 1 at each time point: 30-50%
[3]; Day 5, AMX0035 840 mg/kg PO
  Peak (Cmax) plasma value: 0.298 µg/mL
[3]; [14]
  Plasma Concentration of analyte at 0.50 hr: 0.0961 µg/mL and 0.225 µg/mL and 0.183 µg/mL
  Plasma Concentration of analyte at 1.0 hr: 0.154 µg/mL and 0.236 µg/mL and 0.366 µg/mL
  Plasma Concentration of analyte at 2.0 hr: 0.126 µg/mL and 0.2 µg/mL and 0.505 µg/mL
  Plasma Concentration of analyte at 4.0 hr: 0.123 µg/mL and 0.176 µg/mL and 0.255 µg/mL
  Plasma Concentration of analyte at 8.0 hr: 0.103 µg/mL and 0.172 µg/mL and 0.187 µg/mL
  Plasma Concentration of analyte at 24 hr: 0.13 µg/mL and 0.216 µg/mL and 0.178 µg/mL
  Plasma Concentration of analyte at […]: 0.084 µg/mL and 0.22 µg/mL and 0.235 µg/mL
[3]; [15]
  Plasma Concentration of analyte at 0.50 hr: 0.168 µg/mL
  Plasma Concentration of analyte at 1.0 hr: 0.252 µg/mL
  Plasma Concentration of analyte at 2.0 hr: 0.277 µg/mL
  Plasma Concentration of analyte at 4.0 hr: 0.185 µg/mL
  Plasma Concentration of analyte at 8.0 hr: 0.154 µg/mL
  Plasma Concentration of analyte at 24 hr: 0.175 µg/mL
  Plasma Concentration of analyte at […]: 0.18 µg/mL
[3]; [16]
  AUC0-24: 2.04 µg·h/mL and 4.87 µg·h/mL and 5.38 µg·h/mL
  AUClast: 2.04 µg·h/mL and 4.87 µg·h/mL and 5.38 µg·h/mL
  Cmax: 0.113 µg/mL and 0.313 µg/mL and 0.287 µg/mL
  Tlast: 24 h
  Tmax: 24 h and 2.0 h
[3]; [17]
  AUC0-24: 0.409 µg·h/mL
  AUClast: 4.09 µg·h/mL
  Cmax: 0.238 µg/mL
  Tlast: 24 h
  Tmax: 17 h
[3]; [18]
  AUC0-24: 2.8 µg·h/mL and 4.59 µg·h/mL and 5.22 µg·h/mL
  AUClast: 2.8 µg·h/mL and 4.59 µg·h/mL and 5.22 µg·h/mL
  Cmax: 0.154 µg/mL and 0.236 µg/mL and 0.505 µg/mL
  Tlast: 24 h
  Tmax: 1.0 h and 2.0 h
[3]; [19]
  AUC0-24: 4.2 µg·h/mL
  AUClast: 4.2 µg·h/mL
  Cmax: 0.298 µg/mL
  Tlast: 24 h
  Tmax: 1.3 h

## O=C(O)CCCc1ccccc1 [PB, sodium phenylbutyrate]
OAT3
  potency estimated from few doses: < 25 µM
[1]; male, Sprague-Dawley, rat, in vivo
  Urine concentrations: Urine concentrations for PB analysis in all animals on Day 1, for TUDCA analysis in all animals on Days 1 and 5, and for TDF analysis in two animals on Day 1 and one animal on Day 5 were BLQ (<20 mg/mL) so no recovery data was calculated.
[2]; [4]
  Measured Concentration: 52000 µM and 59300 µM and 52800 µM
  Percent of the Nominal Concentration: 80.7% and 92.0% and 81.9%
[2]; [5]
  Measured Concentration: 62200 µM and 53200 µM and 61100 µM
  Percent of the Nominal Concentration: 84.1% and 72.0% and 82.6%
hrCYP2C19; human, 1 h, 5 µM, pH 7.4
  % remaining after 60 minutes: greater than 90%
hrCYP2B6; human, 1 h, 5 µM, pH 7.4
  % remaining after 60 minutes: greater than 90%
P-gp and BCRP; Caco-2
  P-gp or BCRP substrate: neither TUDCA nor PB is P-gp or BCRP substrate
[3]; [14]
  Plasma Concentration of analyte at 8.0 hr: 0.102 µg/mL
